# Values quoted from earlier work, collected in patent publication US8617286B2, “Method for increasing crop yield” (priority 2010, dated 2013).
# Test system: nitrification of ammonia nitrogen into nitrate
# Details: general statement, no test described
compound,measurement,value
"N#CN=C(N)N [DCD, dicyandiamide]",slowing of nitrification of ammonia nitrogen into nitrate,about 80%
